# Experiment: xn = mol fraction of the nth substance listed
# Conditions: 100 kPa
structure (smiles),measurement,setting,value
CCCC[n+]1ccn(C)c1.F[P-](F)(F)(F)(F)F + c1ccccc1,viscosity,"313.2 K, x2 = 0.0999",54.8 mPa·s
same,viscosity,"313.2 K, x2 = 0.2002",40.7 mPa·s
same,viscosity,"313.2 K, x2 = 0.3003",29 mPa·s
same,viscosity,"313.2 K, x2 = 0.3953",18.5 mPa·s
same,viscosity,"313.2 K, x2 = 0.5001",11.2 mPa·s
same,viscosity,"313.2 K, x2 = 0.6779",7.2 mPa·s
same,viscosity,"333.2 K, x2 = 0.0999",26.9 mPa·s
same,viscosity,"333.2 K, x2 = 0.2002",22 mPa·s
same,viscosity,"333.2 K, x2 = 0.3003",15.1 mPa·s
same,viscosity,"333.2 K, x2 = 0.3953",9.6 mPa·s
same,viscosity,"333.2 K, x2 = 0.5001",7.6 mPa·s

# From a compilation of properties of binary mixtures (doi:10.1021/je1012444)
